Reference: patent publication US12357711B2, “PSMA binding dual mode radiotracer and therapeutic” (Technische Universität München, priority 2019, dated 2025)

Tested on: SCID mice
Assay: Preclinical dosimetry from biodistribution in mice, extrapolated to 70-kg Standard Adult (OLINDA/EXM 1.0)
Assay type: in vivo
Conditions: 1.0 h bladder voiding interval
Description: 3-5 mice were injected per timepoint with a mean 25.6±3.6 MBq of 18F-rhPSMA-7 and 28.5±4.8 MBq of 18F-rhPSMA-7.3, respectively. Mice, severe combined immunodeficiency (SCID) were used for the experiments.
Mice were sacrificed at the following timepoints: • ^18F-rhPSMA-7: 10, 20, 40, 60, 120 and 180 minutes after administration. • ^18F-rhPSMA-7.3: 10, 60, 120, 180 and 300 minutes after administration.
Urine, blood, heart, lung, spleen, pancreas, liver, stomach (emptied), small intestine (emptied), large intestine (emptied), kidneys, bladder, testis, fat, muscle (partial, femoral), femur, tail and brain. Urine was collected with a pipette in the CO2 gas chamber. In case of missing urination in the chamber the bladder was aspirated with an insulin syringe. Blood was withdrawn instantly after sacrifice with an insulin syringe from the heart. All other tissues and organs were dissected and transferred directly in plastic containers.
The counting rates of measurement samples were automatically corrected for decay. The radioactivity distribution ratios (unit: percentage of the injected dose (% ID) in the measurement samples were determined using the equation below. The sum of the counting rates from all measurement samples obtained from one mouse was designated as the counting rate for administrated radioactivity.
The radioactivity distribution ratio per unit weight of the measurement sample (unit: % ID/g) excluding urine and feces samples was determined by using the equation below. The weight of the measurement sample was determined by subtraction of the empty measurement container from the container including the sample.
For consistency of statistical calculations for each radiotracer the same number of time-points for ^18F-rhPSMA-7 and ^18F-rhPSMA-7.3 was used. Therefore, for ^18F-rhPSMA-7 the 10 min and 20 min time points were combined creating a 15 min endpoint.
The time-integral of activity for the accumulation in the significant source organs (AUCs) were generated both with numerical integration and physical decay according to J Juan et al., Journal of Pharmaceutical Sciences, 1993, 82:762-763.
In brief, to calculate a human dosimetry from the biodistribution in the mice, an extrapolation was necessary to account for the differences between the animals and humans. Normal-organ radiation doses were estimated for the 70-kg Standard Adult anatomic model using time-depending organ activity concentrations (in percent of the injected dose per gram, % ID/g) and total-body activities measured in the biodistribution studies in mice.
Tissue activity concentrations in mice were converted to tissue fractional activities in the 70-kg Standard Adult using the relative fractional organ masses in the Standard Adult and the “standard” 25-gramm mouse. Time-dependent total-body activity was fit to an exponential function and the difference between the injected activity and the total-body activity was assumed to be excreted to the urine because activity concentrations in the liver and GI tracer were low at all time points studied.
Organ residence time was calculated by numerical integration using the trapezoidal rule and the rest-of-body ^18F residence times was calculated as the difference between the total-body residence time and the sum of the organ and urine residence times. The bladder contents residence time was estimated using the dynamic voiding model in the OLINDA/EXM 1.0 dosimetry software. Finally, the Standard Adult mean organ dose equivalents (in mSv/MBq) and effective dose (also in mSv/MBq) were then calculated using OLIN DA/EXM 1.0.
Final calculation of radiation absorbed dose and dosimetry from biodistribution in mice: The tissues or organs in which a significant accumulation of radioactivity occurs (i.e., source organ) were kidney, spleen, lung, liver and heart. With respect to activity accumulation and clearance, a rapid clearance from blood and clearance to urine but relatively slow build-up in kidney was found.

## [^19F][^natGa]D/L-Dap-R/S-DOTAGA-rhPSMA7 [rhPSMA7-rac]
  Adrenals ED Cont.: 3.79E−05 mSv/MBq
  Adrenals EDE Cont.: 0.00E000 mSv/MBq
  Adrenals dose Alpha: 0.00E000 mSv/MBq
  Adrenals dose Beta: 1.95E−03 mSv/MBq
  Adrenals dose Photon: 5.64E−03 mSv/MBq
  Adrenals dose Total: 7.59E−03 mSv/MBq
  Brain ED Cont.: 2.24E−05 mSv/MBq
  Brain EDE Cont.: 0.00E000 mSv/MBq
  Brain dose Alpha: 0.00E000 mSv/MBq
  Brain dose Beta: 1.95E−03 mSv/MBq
  Brain dose Photon: 2.54E−03 mSv/MBq
  Brain dose Total: 4.49E−03 mSv/MBq
  Breasts ED Cont.: 2.10E−04 mSv/MBq
  Breasts EDE Cont.: 6.30E−04 mSv/MBq
  Breasts dose Alpha: 0.00E000 mSv/MBq
  Breasts dose Beta: 1.95E−03 mSv/MBq
  Breasts dose Photon: 2.25E−03 mSv/MBq
  Breasts dose Total: 4.20E−03 mSv/MBq
  Gallbladder Wall ED Cont.: 0.00E000 mSv/MBq
  Gallbladder Wall EDE Cont.: 0.00E000 mSv/MBq
  Gallbladder Wall dose Alpha: 0.00E000 mSv/MBq
  Gallbladder Wall dose Beta: 1.95E−03 mSv/MBq
  Gallbladder Wall dose Photon: 4.96E−03 mSv/MBq
  Gallbladder Wall dose Total: 6.91E−03 mSv/MBq
  Heart Wall ED Cont.: 0.00E000 mSv/MBq
  Heart Wall EDE Cont.: 0.00E000 mSv/MBq
  Heart Wall dose Alpha: 0.00E000 mSv/MBq
  Heart Wall dose Beta: 8.82E−04 mSv/MBq
  Heart Wall dose Photon: 3.48E−03 mSv/MBq
  Heart Wall dose Total: 4.36E−03 mSv/MBq
  Kidneys ED Cont.: 3.23E−04 mSv/MBq
  Kidneys EDE Cont.: 3.88E−03 mSv/MBq
  Kidneys dose Alpha: 0.00E000 mSv/MBq
  Kidneys dose Beta: 4.70E−02 mSv/MBq
  Kidneys dose Photon: 1.76E−02 mSv/MBq
  Kidneys dose Total: 6.47E−02 mSv/MBq
  LLI Wall ED Cont.: 1.10E−03 mSv/MBq
  LLI Wall EDE Cont.: 5.52E−04 mSv/MBq
  LLI Wall dose Alpha: 0.00E000 mSv/MBq
  LLI Wall dose Beta: 1.95E−03 mSv/MBq
  LLI Wall dose Photon: 7.25E−03 mSv/MBq
  LLI Wall dose Total: 9.20E−03 mSv/MBq
  Liver ED Cont.: 2.01E−04 mSv/MBq
  Liver EDE Cont.: 0.00E000 mSv/MBq
  Liver dose Alpha: 0.00E000 mSv/MBq
  Liver dose Beta: 6.35E−04 mSv/MBq
  Liver dose Photon: 3.39E−03 mSv/MBq
  Liver dose Total: 4.02E−03 mSv/MBq
  Lungs ED Cont.: 5.11E−04 mSv/MBq
  Lungs EDE Cont.: 5.11E−04 mSv/MBq
  Lungs dose Alpha: 0.00E000 mSv/MBq
  Lungs dose Beta: 1.25E−03 mSv/MBq
  Lungs dose Photon: 3.01E−03 mSv/MBq
  Lungs dose Total: 4.26E−03 mSv/MBq
  Muscle ED Cont.: 2.98E−05 mSv/MBq
  Muscle EDE Cont.: 0.00E000 mSv/MBq
  Muscle dose Alpha: 0.00E000 mSv/MBq
  Muscle dose Beta: 1.95E−03 mSv/MBq
  Muscle dose Photon: 4.01E−03 mSv/MBq
  Muscle dose Total: 5.96E−03 mSv/MBq
  Osteogenic Cells ED Cont.: 8.27E−05 mSv/MBq
  Osteogenic Cells EDE Cont.: 2.48E−04 mSv/MBq
  Osteogenic Cells dose Alpha: 0.00E000 mSv/MBq
  Osteogenic Cells dose Beta: 4.18E−03 mSv/MBq
  Osteogenic Cells dose Photon: 4.09E−03 mSv/MBq
  Osteogenic Cells dose Total: 8.27E−03 mSv/MBq
  Ovaries ED Cont.: 1.83E−03 mSv/MBq
  Ovaries EDE Cont.: 2.29E−03 mSv/MBq
  Ovaries dose Alpha: 0.00E000 mSv/MBq
  Ovaries dose Beta: 1.95E−03 mSv/MBq
  Ovaries dose Photon: 7.21E−03 mSv/MBq
  Ovaries dose Total: 9.16E−03 mSv/MBq
  Pancreas ED Cont.: 3.90E−05 mSv/MBq
  Pancreas EDE Cont.: 0.00E000 mSv/MBq
  Pancreas dose Alpha: 0.00E000 mSv/MBq
  Pancreas dose Beta: 1.95E−03 mSv/MBq
  Pancreas dose Photon: 5.86E−03 mSv/MBq
  Pancreas dose Total: 7.80E−03 mSv/MBq
  Red Marrow ED Cont.: 6.82E−04 mSv/MBq
  Red Marrow EDE Cont.: 6.82E−04 mSv/MBq
  Red Marrow dose Alpha: 0.00E000 mSv/MBq
  Red Marrow dose Beta: 1.39E−03 mSv/MBq
  Red Marrow dose Photon: 4.29E−03 mSv/MBq
  Red Marrow dose Total: 5.68E−03 mSv/MBq
  Skin ED Cont.: 4.32E−05 mSv/MBq
  Skin EDE Cont.: 0.00E000 mSv/MBq
  Skin dose Alpha: 0.00E000 mSv/MBq
  Skin dose Beta: 1.95E−03 mSv/MBq
  Skin dose Photon: 2.38E−03 mSv/MBq
  Skin dose Total: 4.32E−03 mSv/MBq
  Small Intestine ED Cont.: 3.87E−05 mSv/MBq
  Small Intestine EDE Cont.: 0.00E000 mSv/MBq
  Small Intestine dose Alpha: 0.00E000 mSv/MBq
  Small Intestine dose Beta: 1.95E−03 mSv/MBq
  Small Intestine dose Photon: 5.79E−03 mSv/MBq
  Small Intestine dose Total: 7.73E−03 mSv/MBq
  Spleen ED Cont.: 1.29E−04 mSv/MBq
  Spleen EDE Cont.: 1.55E−03 mSv/MBq
  Spleen dose Alpha: 0.00E000 mSv/MBq
  Spleen dose Beta: 1.59E−02 mSv/MBq
  Spleen dose Photon: 9.90E−03 mSv/MBq
  Spleen dose Total: 2.58E−02 mSv/MBq
  Stomach Wall ED Cont.: 7.98E−04 mSv/MBq
  Stomach Wall EDE Cont.: 0.00E000 mSv/MBq
  Stomach Wall dose Alpha: 0.00E000 mSv/MBq
  Stomach Wall dose Beta: 1.95E−03 mSv/MBq
  Stomach Wall dose Photon: 4.70E−03 mSv/MBq
  Stomach Wall dose Total: 6.65E−03 mSv/MBq
  Testes ED Cont.: 0.00E000 mSv/MBq
  Testes EDE Cont.: 0.00E000 mSv/MBq
  Testes dose Alpha: 0.00E000 mSv/MBq
  Testes dose Beta: 1.95E−03 mSv/MBq
  Testes dose Photon: 5.09E−03 mSv/MBq
  Testes dose Total: 7.03E−03 mSv/MBq
  Thymus ED Cont.: 2.57E−05 mSv/MBq
  Thymus EDE Cont.: 0.00E000 mSv/MBq
  Thymus dose Alpha: 0.00E000 mSv/MBq
  Thymus dose Beta: 1.95E−03 mSv/MBq
  Thymus dose Photon: 3.20E−03 mSv/MBq
  Thymus dose Total: 5.15E−03 mSv/MBq
  Thyroid ED Cont.: 2.59E−04 mSv/MBq
  Thyroid EDE Cont.: 1.55E−04 mSv/MBq
  Thyroid dose Alpha: 0.00E000 mSv/MBq
  Thyroid dose Beta: 1.95E−03 mSv/MBq
  Thyroid dose Photon: 3.23E−03 mSv/MBq
  Thyroid dose Total: 5.17E−03 mSv/MBq
  Total Body ED Cont.: 0.00E000 mSv/MBq
  Total Body EDE Cont.: 0.00E000 mSv/MBq
  Total Body dose Alpha: 0.00E000 mSv/MBq
  Total Body dose Beta: 2.27E−03 mSv/MBq
  Total Body dose Photon: 3.93E−03 mSv/MBq
  Total Body dose Total: 6.19E−03 mSv/MBq
  ULI Wall ED Cont.: 3.64E−05 mSv/MBq
  ULI Wall EDE Cont.: 0.00E000 mSv/MBq
  ULI Wall dose Alpha: 0.00E000 mSv/MBq
  ULI Wall dose Beta: 1.95E−03 mSv/MBq
  ULI Wall dose Photon: 5.33E−03 mSv/MBq
  ULI Wall dose Total: 7.27E−03 mSv/MBq
  Urinary Bladder Wall ED Cont.: 5.76E−03 mSv/MBq
  Urinary Bladder Wall EDE Cont.: 6.92E−03 mSv/MBq
  Urinary Bladder Wall dose Alpha: 0.00E000 mSv/MBq
  Urinary Bladder Wall dose Beta: 7.87E−02 mSv/MBq
  Urinary Bladder Wall dose Photon: 3.66E−02 mSv/MBq
  Urinary Bladder Wall dose Total: 1.15 E−01 mSv/MBq
  Uterus ED Cont.: 6.56E−05 mSv/MBq
  Uterus EDE Cont.: 7.87E−04 mSv/MBq
  Uterus dose Alpha: 0.00E000 mSv/MBq
  Uterus dose Beta: 1.95E−03 mSv/MBq
  Uterus dose Photon: 1.12E−02 mSv/MBq
  Uterus dose Total: 1.31E−02 mSv/MBq
